From patent US20130261130A1, “NEUROTRYPSIN INHIBITORS” (priority 2010, published 2013) come the findings set out here.

The target of this assay is T1, human neurotrypsin (Homo sapiens, UniProt P56730).
T1 sequence (P56730 21-875): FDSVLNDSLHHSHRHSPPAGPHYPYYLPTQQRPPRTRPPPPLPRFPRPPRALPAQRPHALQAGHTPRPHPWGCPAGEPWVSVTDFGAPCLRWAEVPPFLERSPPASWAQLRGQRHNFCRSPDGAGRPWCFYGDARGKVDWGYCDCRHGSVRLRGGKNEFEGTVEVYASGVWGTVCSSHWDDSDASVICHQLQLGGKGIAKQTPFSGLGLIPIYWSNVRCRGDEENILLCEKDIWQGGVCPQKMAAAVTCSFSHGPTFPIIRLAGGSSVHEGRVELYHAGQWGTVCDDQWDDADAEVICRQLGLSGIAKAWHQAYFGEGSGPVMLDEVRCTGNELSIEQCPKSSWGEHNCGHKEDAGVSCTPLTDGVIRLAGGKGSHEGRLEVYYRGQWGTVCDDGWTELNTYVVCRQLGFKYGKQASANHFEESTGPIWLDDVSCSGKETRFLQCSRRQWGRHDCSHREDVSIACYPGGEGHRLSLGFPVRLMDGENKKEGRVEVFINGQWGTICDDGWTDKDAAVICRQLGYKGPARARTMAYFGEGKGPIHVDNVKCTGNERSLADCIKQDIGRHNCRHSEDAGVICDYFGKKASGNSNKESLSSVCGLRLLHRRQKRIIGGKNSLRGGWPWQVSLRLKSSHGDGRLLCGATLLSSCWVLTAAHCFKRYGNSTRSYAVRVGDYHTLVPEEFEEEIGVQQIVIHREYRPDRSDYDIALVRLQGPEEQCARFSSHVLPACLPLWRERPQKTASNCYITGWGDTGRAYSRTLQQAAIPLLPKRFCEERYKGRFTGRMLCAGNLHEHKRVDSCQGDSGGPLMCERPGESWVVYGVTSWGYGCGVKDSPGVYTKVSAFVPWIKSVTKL
Put plainly: Determination of IC50 for human neurotrypsin. To be noted: human neurotrypsin; method of WO 2006/1103261; read-out: Neurotrypsin IC50. The assay is classed as biochemical. The protocol:
Assessment of the potency of compounds of examples 1-311 in inhibiting the enzymatic activity of human neurotrypsin was performed according to the method described in patent application WO 2006/1103261
Consider `O=C(Nc1ccc(C(=O)N2CCC(Oc3ccccc3)CC2)cc1C(=O)O)c1ccc(-c2ccc(Cl)cc2)s1` [Example 162, 2-(5-(4-Chlorophenyl)-thiophene-2-carboxamido)-5-(4-phenoxypiperidine-1-carbonyl)benzoic acid], for which the half-inhibitory concentration (IC50) was found to be 4.5 µM.

Take `O=C(Nc1ccc(C(=O)N2CCC(c3ccccc3)CC2)cc1C(=O)O)c1cc2ccc(Cl)cc2s1` [Example 163, 2-(6-Chlorobenzo[b]-thiophene-2-carboxamido)-5-(4-phenylpiperidine-1-carbonyl)benzoic acid]: the IC50 came out at 2.6 µM. In the case of `O=C(Nc1ccc(C(=O)N2CCC(Cc3ccc(Cl)cc3)CC2)cc1C(=O)O)c1cc2ccc(Cl)cc2s1` [Example 164, 2-(6-Chlorobenzo[b]-thiophene-2-carboxamido)-5-(4-(4-chlorobenzyl)piperidine-1-carbonyl)benzoic acid], the IC50 came to 3.5 µM. Consider `O=C(NCc1c(F)cccc1F)c1ccc(NC(=O)c2cc3ccc(Cl)cc3s2)c(C(=O)O)c1` [Example 165, 2-(6-Chlorobenzo[b]-thiophene-2-carboxamido)-5-(2,6-difluorobenzyl-carbamoyl)benzoic acid], for which the half-inhibitory concentration (IC50) worked out at 8.9 µM.

For `O=C(O)c1ccc(C(=O)Nc2ccc(Cl)cc2)c(NC(=O)c2sc3ccccc3c2Cl)c1` [Example 188, 3-(3-Chlorobenzo[b]-thiophene-2-carboxamido)-4-(4-chlorophenylcarbamoyl)-benzoic acid], the IC50 turned out to be 6.8 µM.

Consider `O=C(O)c1ccc(C(=O)Nc2ccc(Cc3ccccc3)cc2)c(NC(=O)c2sccc2Cl)c1` [Example 196, 4-(4-Benzylphenyl-carbamoyl)-3-(3-chloro-thiophene-2-carboxamido)-benzoic acid], for which the IC50 is 10.2 µM. Turning to `O=C(O)c1ccc(NC(=O)c2ccc(Cl)s2)c(C(=O)Nc2ccc(Cl)cc2)c1` [Example 218, 3-(4-Chlorophenyl-carbamoyl)-4-(5-chloro-thiophene-2-carboxamido)-benzoic acid], the IC50 came to 40.8 µM. In the case of `O=C(Nc1ccc(Cl)cc1)c1ccc(-c2nn[nH]n2)c(NC(=O)c2sc3ccccc3c2Cl)c1` [Example 229, 3-Chloro-benzo[b]thiophene-2-carboxylic acid [5-(4-chloro-phenyl-carbamoyl)-2-(2H-tetrazol-5-yl)phenyl]amide], the IC50 is 3.7 µM. Turning to `O=C(O)c1ccc(/C=C/Cc2ccccc2)cc1NC(=O)c1sc2ccccc2c1Cl` [Example 246], the IC50 was 98.4 µM. Take `O=C(O)c1ccc(C#Cc2ccc(Cl)cc2)cc1NC(=O)c1sc2ccccc2c1Cl` [Example 248]: the IC50 was greater than 150 µM. With `COc1ccc(-c2ccc(C(=O)O)c(NC(=O)c3sc4ccccc4c3Cl)c2)cc1` [Example 249], the IC50 is 2.8 µM. With `O=C(O)c1ccc(-c2ccccc2Cl)cc1NC(=O)c1sc2ccccc2c1Cl` [Example 250] the figure was 2.4 µM; with `N#Cc1ccc(-c2ccc(C(=O)O)c(NC(=O)c3sc4ccccc4c3Cl)c2)cc1` [Example 255], 3.1 µM; with `O=C(O)c1ccc(-c2cn(-c3ccc(Cl)cc3)nn2)cc1NC(=O)c1sc2ccccc2c1Cl` [Example 257, 2-(3-Chlorobenzo[b]thiophene-2-carboxamido)-4-(1-(4-chlorophenyl)-1H-1,2,3-triazol-4-yl)benzoic acid], 3.8 µM. In the case of `O=C(O)c1ccc(-c2cn(Cc3ccccc3)nn2)cc1NC(=O)c1sc2ccccc2c1Cl` [Example 258], the half-inhibitory concentration (IC50) was 9.4 µM. Turning to `O=C(O)c1ccc(-c2cn(Cc3c(F)cccc3F)nn2)cc1NC(=O)c1sc2ccccc2c1Cl` [Example 260], the IC50 turned out to be 11 µM.

`O=C(O)c1ccc(-c2cn(-c3ccc(Cl)c(C(F)(F)F)c3)nn2)cc1NC(=O)c1sc2ccccc2c1Cl` [Example 261]: the IC50 amounted to 5.5 µM. `O=C(O)c1ccc(-c2cn(Cc3ccc(Cl)s3)nn2)cc1NC(=O)c1sc2ccccc2c1Cl` [Example 262]: the IC50 was found to be 7 µM.

Take `O=C(O)c1cc(-c2cn(-c3ccc(Cl)cc3)nn2)ccc1NC(=O)c1sc2ccccc2c1Cl` [Example 263]: the half-maximal inhibitory concentration (IC50) was determined as 4 µM. To `COc1ccc(-c2ccc(C(=O)O)c(NC(=O)c3ccc(-c4nc5cc(Cl)c(Cl)cc5[nH]4)cc3)c2)cc1` [Example 266] belongs 3.7 µM. With `N#Cc1ccc(-c2ccc(C(=O)O)c(NC(=O)c3ccc(-c4nc5cc(Cl)c(Cl)cc5[nH]4)cc3)c2)cc1` [Example 267], the IC50 was found to be 0.5 µM. As to `O=C(O)c1cc(NC(=O)c2sc3ccccc3c2Cl)ccc1C(=O)Nc1ccc(Cl)cc1` [Example 270, 5-(3-Chlorobenzo[b]thiophene-2-carboxamido)-2-(4-chlorophenyl-carbamoyl)benzoic acid], the IC50 worked out at 22.9 µM. For the molecule `O=C(O)c1cc(NC(=O)c2sc3ccccc3c2Cl)ccc1C(=O)Nc1ccc(Cl)cc1` [Example 271], the IC50 was found to be 14.2 µM.

On to `O=C(Nc1ccc(C(=O)O)c(NC(=O)c2sc3ccccc3c2Cl)c1)c1ccc(Cl)cc1` [Example 273], for which the half-maximal inhibitory concentration (IC50) is 7.6 µM. Consider `O=C(Nc1ccc(C(=O)O)c(NC(=O)c2sc3ccccc3c2Cl)c1)c1ccc(Cl)s1` [Example 274], for which the IC50 is 6.6 µM. `O=C(Nc1ccc(C(=O)O)c(NC(=O)c2ccc(-c3ccccc3)s2)c1)c1ccc(Cl)s1` [Example 275]: the half-inhibitory concentration (IC50) turned out to be 3 µM.

As to `O=C(Nc1ccc(Cl)cc1)Nc1ccc(C(=O)O)c(NC(=O)c2sc3ccccc3c2Cl)c1` [Example 276], the 50% inhibitory concentration (IC50) was determined as 6.3 µM. Turning to `O=C(Nc1cc(NC(=O)c2sc3ccccc3c2Cl)ccc1C(=O)O)c1ccc(Cl)cc1` [Example 277], the IC50 is 3.5 µM.

For the molecule `O=C(O)c1ccc(NS(=O)(=O)c2ccc(Cl)cc2)cc1NC(=O)c1sc2ccccc2c1Cl` [Example 278], the IC50 amounted to 19.4 µM. With `O=C(O)c1ccc(NC(=O)N2CCC(c3ccccc3)CC2)cc1NC(=O)c1sc2ccccc2c1Cl` [Example 279], the concentration for half-maximal inhibition (IC50) is 5.4 µM.

`O=C(O)c1ccc(NCc2ccc(Cl)cc2)cc1NC(=O)c1sc2ccccc2c1Cl` [Example 280, 2-(3-Chlorobenzo[b]thiophene-2-carboxamido)-4-(4-chlorobenzylamino)-benzoic acid]: the IC50 turned out to be 5 µM. On to `O=C(O)c1ccc(N2CC(c3ccc(Cl)cc3)CC2=O)cc1NC(=O)c1sc2ccccc2c1Cl` (stereo not drawn) [Example 282], for which the IC50 is 11.3 µM. Turning to `O=C(Nc1cc(N2CC(c3ccc(Cl)cc3)CC2=O)ccc1C(=O)O)c1ccc(-c2ccc(Cl)cc2)s1` (stereo not drawn) [Example 283], the IC50 came to 3.4 µM.

For `O=C(O)c1ccc(N2CC(c3ccc(Cl)cc3)CCC2=O)cc1NC(=O)c1sc2ccccc2c1Cl` (stereo not drawn) [Example 286], the concentration for half-maximal inhibition (IC50) was 10.4 µM. To `O=C(O)c1cc(N2CC(c3ccc(Cl)cc3)CC2=O)ccc1NC(=O)c1sc2ccccc2c1Cl` (stereo not drawn) [Example 287] belongs 4.3 µM.

Take `O=C(O)c1ccc(Nc2ccc(Cl)cc2)cc1NC(=O)c1sc2ccccc2c1Cl` [Example 288, 2-(3-Chlorobenzo[b]thiophene-2-carboxamido)-4-(4-chlorophenyl-amino)benzoic acid]: the IC50 amounted to 5.1 µM. With `CC(Nc1ccc(C(=O)O)c(NC(=O)c2sc3ccccc3c2Cl)c1)c1ccc(Cl)cc1` (stereo not drawn) [Example 290], the IC50 is 4.1 µM. Take `O=C(O)c1ccc(NC2CCCc3ccccc32)cc1NC(=O)c1sc2ccccc2c1Cl` (stereo not drawn) [Example 291]: the 50% inhibitory concentration (IC50) was 4 µM. As to `O=C(Nc1ccc(Sc2ccc(Cl)cc2)cc1C(=O)O)c1ccc(-c2ccc(Cl)cc2)s1` [Example 293], the half-maximal inhibitory concentration (IC50) turned out to be 8.7 µM.

As to `O=C(O)c1ccc(CN2CC(c3ccc(Cl)cc3)OC2=O)cc1NC(=O)c1sc2ccccc2c1Cl` (stereo not drawn) [Example 301], the IC50 was 8.7 µM. With `O=C(O)COc1cc(C(=O)O)c(NC(=O)c2ccc(-c3nc4cc(Cl)c(Cl)cc4n3CC(=O)O)cc2)cc1C(=O)Nc1ccc(Cl)cc1` [Example 302, 5-(Carboxymethoxy)-2-(4-(1-(carboxymethyl)-5,6-dichloro-1H-benzo[d]imidazol-2-yl)benzamido)-4-(4-chlorophenylcarbamoyl)benzoic acid] the figure was 4.4 µM; with `O=C(Nc1ccc(Cl)cc1)c1cc(NC(=O)c2sc3ccccc3c2Cl)c(C(=O)O)cc1O` [Example 303], 5.5 µM. With `O=C(O)COc1cc(C(=O)O)c(NC(=O)c2sc3ccccc3c2Cl)cc1C(=O)Nc1ccc(Cl)cc1` [Example 304] the figure was 2.5 µM. As to `COC(=O)c1cc(OCC(=O)O)c(C(=O)Nc2ccc(Cl)cc2)cc1NC(=O)c1ccc(-c2nc3cc(Cl)c(Cl)cc3n2C)cc1` [Example 305], the half-maximal inhibitory concentration (IC50) was determined as 1.2 µM. For the molecule `Cn1c(-c2ccc(C(=O)Nc3cc(C(=O)Nc4ccc(Cl)cc4)c(OCC(=O)O)cc3C(=O)O)cc2)nc2cc(Cl)c(Cl)cc21` [Example 306], the IC50 came out at 0.5 µM.
